Experiments:
[1] = molecular target: T1, U46619 stimulated platelet aggregation (Homo sapiens, UniProt P21731); experiment: Test (b): blood platelet aggregation test (U46619, human citrated platelet-rich plasma); type: cell-based
T1 construct: aggregating human, citrated, platelet-rich plasma by addition of the TXA2 mimetic agent U46619; endogenous in cells; host or cells: human platelets in citrated platelet-rich plasma
T1 sequence (P21731 1-343): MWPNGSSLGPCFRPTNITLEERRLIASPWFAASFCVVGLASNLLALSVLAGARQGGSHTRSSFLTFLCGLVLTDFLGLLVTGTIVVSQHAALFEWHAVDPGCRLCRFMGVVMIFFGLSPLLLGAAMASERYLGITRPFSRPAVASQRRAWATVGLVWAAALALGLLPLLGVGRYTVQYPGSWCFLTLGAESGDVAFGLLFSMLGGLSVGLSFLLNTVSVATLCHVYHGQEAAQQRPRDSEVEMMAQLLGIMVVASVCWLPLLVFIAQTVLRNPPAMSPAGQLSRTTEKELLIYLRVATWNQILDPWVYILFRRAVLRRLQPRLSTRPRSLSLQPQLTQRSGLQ
From the text: (b) a blood platelet aggregation test based on that described by Born (Nature, 1962, 194, 927-929) and involving:
(i) aggregating human, citrated, platelet-rich plasma by addition of the TXA2 mimetic agent U46619 so that a dose-response curve is generated;
(iii) calculating a KB value indicating potency of TXA2 antagonism for the test compound, averaged over several concentrations, from the calculated 50% response value for U46619 aggregation in the presence and absence of test compound; and […]

TXA2 = molecular target: T2, TXA2 (Oryctolagus cuniculus, UniProt Q6WQI8); experiment: Test (a): rabbit aortal strip model, TXA2 antagonism; conditions: (+0.05) for (i)-(iii)
T2 construct: agonist TXA2 (from rabbit platelet-rich plasma) or U46619
T2 sequence (Q6WQI8 1-233): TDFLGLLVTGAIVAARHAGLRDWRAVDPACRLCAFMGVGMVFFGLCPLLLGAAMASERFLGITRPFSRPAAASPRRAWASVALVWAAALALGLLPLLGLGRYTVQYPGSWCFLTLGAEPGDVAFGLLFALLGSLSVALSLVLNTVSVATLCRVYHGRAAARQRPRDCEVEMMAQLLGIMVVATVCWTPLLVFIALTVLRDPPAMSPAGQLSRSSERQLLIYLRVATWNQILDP
Protocol: As stated earlier, the compounds of formula I are antagonists of one or more of the actions of TXA2, for example certain of its actions on blood platelets, the vasculature and/or the lung.
(a) The rabbit aortal strip model devised by Piper and Vane (Nature, 1969, 223, 29-35) using as agonist a freshly prepared sample of TXA2, generated by addition of arachidonic acid (25 μg) to citrated, platelet rich rabbit plasma (250 μl ) and allowing the mixture to aggregate fully over 90 seconds before use; alternatively the TXA2 mimetic agent known as U46619 (described by R. L. Jones et alia in "Chemistry, Biochemistry and Pharmacological Activity of Prostanoids" edited by S. M. Roberts and F. Scheinmann, at page 211; Pergamon Press, 1979) may be used as the agonist; and […]

SMILES | Kb [1] | pA2 (TXA2)
N#Cc1ccc([C@H]2OC[C@@H](C/C=C\CCCC(=O)O)[C@@H](c3ccccc3)O2)cc1 (relative stereo) [(v), 5(Z)-7([2,4,5-cis]-2-p-cyanophenyl-4-phenyl-1,3-dioxan-5-yl)heptenoic acid, reference compound] |  | 5.65
O=C(O)CCC/C=C\C[C@@H]1CO[C@H](c2ccccc2Cl)O[C@@H]1c1ccccc1 (relative stereo) [(iv), 5(Z)-7-([2,4,5-cis]-2-o-chlorophenyl-4-phenyl-1,3-dioxan-5-yl)heptenoic acid, reference compound] |  | 6.22

Results, then the compound that gave them:

Kb [1] | pA2 (TXA2) | SMILES
0.834 nM | 8.09 | N#Cc1ccccc1[C@H]1OC[C@@H](C/C=C\CCC(=O)O)[C@@H](c2ccccc2O)O1 (relative stereo) [compound (ii), 4(Z)-6-([2,4,5-cis]-2-o-cyanophenyl-4-o-hydroxyphenyl-1,3-dioxan-5-yl)hexenoic acid]
5.49 nM | 7.45 | N#Cc1ccc([C@H]2OC[C@@H](C/C=C\CCC(=O)O)[C@@H](c3ccccc3O)O2)cc1 (relative stereo) [compound (iii)]
 | 8.02 | O=C(O)CC/C=C\C[C@@H]1CO[C@H](c2ccccc2Cl)O[C@@H]1c1ccccc1O (relative stereo) [compound (i), 4(Z)-6-([2,4,5-cis]-2-o-chlorophenyl-4-o-hydroxyphenyl-1,3-dioxan-5-yl)hexenoic acid]
